According to the NIST ThermoML archive (doi:10.1021/je7003929):

Assay: xn = mol fraction of the nth substance listed
Conditions: Liquid, Vibrating tube method

c1ccc2sccc2c1 [benzo[b]thiophene] + CCCCCC
Conditions | mass density [kg/m3]
312.99 K, 1009 kPa, x2 = 0.2588 | 1009
312.99 K, 2023 kPa, x2 = 0.2588 | 1009.7
312.99 K, 3016 kPa, x2 = 0.2588 | 1010.5
312.99 K, 4029 kPa, x2 = 0.2588 | 1011.2
312.99 K, 5004 kPa, x2 = 0.2588 | 1011.9
312.99 K, 6021 kPa, x2 = 0.2588 | 1012.6
312.99 K, 7031 kPa, x2 = 0.2588 | 1013.3
312.99 K, 8005 kPa, x2 = 0.2588 | 1014
312.99 K, 9022 kPa, x2 = 0.2588 | 1014.8
312.99 K, 10016 kPa, x2 = 0.2588 | 1015.4
312.99 K, 11004 kPa, x2 = 0.2588 | 1016.1
312.99 K, 12015 kPa, x2 = 0.2588 | 1016.8
312.99 K, 13015 kPa, x2 = 0.2588 | 1017.5
312.99 K, 14003 kPa, x2 = 0.2588 | 1018.2
312.99 K, 15011 kPa, x2 = 0.2588 | 1018.9
312.99 K, 16003 kPa, x2 = 0.2588 | 1019.5
312.99 K, 17010 kPa, x2 = 0.2588 | 1020.2
312.99 K, 18002 kPa, x2 = 0.2588 | 1020.9
312.99 K, 19029 kPa, x2 = 0.2588 | 1021.5
312.99 K, 20017 kPa, x2 = 0.2588 | 1022.2
313 K, 1011 kPa, x2 = 0.0629 | 1112.7
313 K, 2027 kPa, x2 = 0.0629 | 1113.3
313 K, 3046 kPa, x2 = 0.0629 | 1113.9
313 K, 4018 kPa, x2 = 0.0629 | 1114.5
313 K, 5014 kPa, x2 = 0.0629 | 1115.2
313 K, 6016 kPa, x2 = 0.0629 | 1115.7
313 K, 7014 kPa, x2 = 0.0629 | 1116.3
313 K, 8008 kPa, x2 = 0.0629 | 1116.9
313 K, 9013 kPa, x2 = 0.0629 | 1117.6
313 K, 10003 kPa, x2 = 0.0629 | 1118.1
313 K, 11005 kPa, x2 = 0.0629 | 1118.7
313 K, 12017 kPa, x2 = 0.0629 | 1119.3
313 K, 13017 kPa, x2 = 0.0629 | 1119.9
313 K, 14023 kPa, x2 = 0.0629 | 1120.5
313 K, 15024 kPa, x2 = 0.0629 | 1121
313 K, 16016 kPa, x2 = 0.0629 | 1121.6
313 K, 17014 kPa, x2 = 0.0629 | 1122.3
313 K, 18019 kPa, x2 = 0.0629 | 1122.8
313 K, 19014 kPa, x2 = 0.0629 | 1123.4
313 K, 20000 kPa, x2 = 0.0629 | 1124
313.11 K, 1023 kPa, x2 = 0.9432 | 669
313.11 K, 2023 kPa, x2 = 0.9432 | 670
313.11 K, 3037 kPa, x2 = 0.9432 | 671
313.11 K, 4019 kPa, x2 = 0.9432 | 672.2
313.11 K, 5025 kPa, x2 = 0.9432 | 673.3
313.11 K, 6058 kPa, x2 = 0.9432 | 674.4
313.11 K, 7008 kPa, x2 = 0.9432 | 675.5
313.11 K, 8047 kPa, x2 = 0.9432 | 676.6
313.11 K, 9025 kPa, x2 = 0.9432 | 677.6
313.11 K, 10040 kPa, x2 = 0.9432 | 678.6
313.11 K, 11000 kPa, x2 = 0.9432 | 679.6
313.11 K, 12016 kPa, x2 = 0.9432 | 680.7
313.11 K, 13019 kPa, x2 = 0.9432 | 681.6
313.11 K, 14016 kPa, x2 = 0.9432 | 682.6
313.11 K, 15029 kPa, x2 = 0.9432 | 683.6
313.11 K, 16024 kPa, x2 = 0.9432 | 684.5
313.11 K, 17011 kPa, x2 = 0.9432 | 685.5
313.11 K, 18015 kPa, x2 = 0.9432 | 686.4
313.11 K, 19046 kPa, x2 = 0.9432 | 687.4
313.11 K, 20016 kPa, x2 = 0.9432 | 688.2
313.13 K, 1017 kPa, x2 = 0.7491 | 761.8
313.13 K, 2027 kPa, x2 = 0.7491 | 762.9
313.13 K, 3031 kPa, x2 = 0.7491 | 764
313.13 K, 4039 kPa, x2 = 0.7491 | 764.9
313.13 K, 5021 kPa, x2 = 0.7491 | 765.9
313.13 K, 6027 kPa, x2 = 0.7491 | 766.9
313.13 K, 7021 kPa, x2 = 0.7491 | 767.9
313.13 K, 8054 kPa, x2 = 0.7491 | 768.9
313.13 K, 9007 kPa, x2 = 0.7491 | 769.8
313.13 K, 10018 kPa, x2 = 0.7491 | 770.7
313.13 K, 11018 kPa, x2 = 0.7491 | 771.6
313.13 K, 12036 kPa, x2 = 0.7491 | 772.6
313.13 K, 13021 kPa, x2 = 0.7491 | 773.5
313.13 K, 14007 kPa, x2 = 0.7491 | 774.3
313.13 K, 15006 kPa, x2 = 0.7491 | 775.2
313.13 K, 16012 kPa, x2 = 0.7491 | 776
313.13 K, 17016 kPa, x2 = 0.7491 | 776.9
313.13 K, 18000 kPa, x2 = 0.7491 | 777.8
313.13 K, 19017 kPa, x2 = 0.7491 | 778.6
313.13 K, 20030 kPa, x2 = 0.7491 | 779.5
313.15 K, 1025 kPa, x2 = 0.4495 | 910.7
313.15 K, 2010 kPa, x2 = 0.4495 | 911.5
313.15 K, 3028 kPa, x2 = 0.4495 | 912.4
313.15 K, 4011 kPa, x2 = 0.4495 | 913.2
313.15 K, 5013 kPa, x2 = 0.4495 | 914
313.15 K, 6021 kPa, x2 = 0.4495 | 914.8
313.15 K, 7010 kPa, x2 = 0.4495 | 915.6
313.15 K, 8033 kPa, x2 = 0.4495 | 916.4
313.15 K, 9029 kPa, x2 = 0.4495 | 917.2
313.15 K, 10015 kPa, x2 = 0.4495 | 918
313.15 K, 11018 kPa, x2 = 0.4495 | 918.8
313.15 K, 12012 kPa, x2 = 0.4495 | 919.5
313.15 K, 13010 kPa, x2 = 0.4495 | 920.3
313.15 K, 14022 kPa, x2 = 0.4495 | 921
313.15 K, 15019 kPa, x2 = 0.4495 | 921.8
313.15 K, 16008 kPa, x2 = 0.4495 | 922.6
313.15 K, 17018 kPa, x2 = 0.4495 | 923.3
313.15 K, 18027 kPa, x2 = 0.4495 | 924.1
313.15 K, 19006 kPa, x2 = 0.4495 | 924.8
313.15 K, 20006 kPa, x2 = 0.4495 | 925.5
322.05 K, 1026 kPa, x2 = 0.4495 | 901.9
322.05 K, 2020 kPa, x2 = 0.4495 | 902.8
322.05 K, 3015 kPa, x2 = 0.4495 | 903.7
322.05 K, 4003 kPa, x2 = 0.4495 | 904.5
322.05 K, 5014 kPa, x2 = 0.4495 | 905.4
322.05 K, 6021 kPa, x2 = 0.4495 | 906.3
322.05 K, 7015 kPa, x2 = 0.4495 | 907.2
322.05 K, 8009 kPa, x2 = 0.4495 | 908
322.05 K, 9028 kPa, x2 = 0.4495 | 908.9
322.05 K, 10013 kPa, x2 = 0.4495 | 909.7
322.05 K, 11021 kPa, x2 = 0.4495 | 910.5
322.05 K, 12023 kPa, x2 = 0.4495 | 911.3
322.05 K, 13008 kPa, x2 = 0.4495 | 912.1
322.05 K, 14021 kPa, x2 = 0.4495 | 913
322.05 K, 15012 kPa, x2 = 0.4495 | 913.7
322.05 K, 16018 kPa, x2 = 0.4495 | 914.5
322.05 K, 17012 kPa, x2 = 0.4495 | 915.3
322.05 K, 18012 kPa, x2 = 0.4495 | 916.1
322.05 K, 19007 kPa, x2 = 0.4495 | 916.9
322.05 K, 20015 kPa, x2 = 0.4495 | 917.7
322.89 K, 1017 kPa, x2 = 0.2588 | 1000
322.89 K, 2023 kPa, x2 = 0.2588 | 1000.8
322.89 K, 3021 kPa, x2 = 0.2588 | 1001.5
322.89 K, 4016 kPa, x2 = 0.2588 | 1002.3
322.89 K, 5026 kPa, x2 = 0.2588 | 1003.1
322.89 K, 6030 kPa, x2 = 0.2588 | 1003.8
322.89 K, 7028 kPa, x2 = 0.2588 | 1004.6
322.89 K, 8018 kPa, x2 = 0.2588 | 1005.3
322.89 K, 9014 kPa, x2 = 0.2588 | 1006
322.89 K, 10021 kPa, x2 = 0.2588 | 1006.7
322.89 K, 11005 kPa, x2 = 0.2588 | 1007.5
322.89 K, 12022 kPa, x2 = 0.2588 | 1008.2
322.89 K, 13013 kPa, x2 = 0.2588 | 1008.9
322.89 K, 14012 kPa, x2 = 0.2588 | 1009.6
322.89 K, 15017 kPa, x2 = 0.2588 | 1010.3
322.89 K, 16016 kPa, x2 = 0.2588 | 1011
322.89 K, 17002 kPa, x2 = 0.2588 | 1011.7
322.89 K, 18014 kPa, x2 = 0.2588 | 1012.4
322.89 K, 19024 kPa, x2 = 0.2588 | 1013.1
322.89 K, 20016 kPa, x2 = 0.2588 | 1013.8
